Assay results taken from patent publication US7842709B2, “Method for treating inflammatory diseases of the digestive tract” (Ore Pharmaceuticals Inc., priority 2006, dated 2010).

Key:
NF-κB activity = details: at least in CD; cited from earlier work
ulcerative colitis = details: 5 mg/kg infusions; cited from earlier work
Crohn's disease = details: cited from earlier work
DSS-induced colitis = DSS-induced colitis in Balb/c mice, Example 7; format: in vivo
Description: A study was designed with six groups of Balb/c mice: naïve control, DSS followed by vehicle, DSS followed by GL1001 30 mg/kg/day, DSS followed by GL1001 100 mg/kg/day, DSS followed by GL1001 300 mg/kg/day, and DSS followed by sulfasalazine 150 mg/kg/day. Administration of DSS was via drinking water, from day 1 to day 6 of the study. […] Administration of vehicle, GL1001 and sulfasalazine was subcutaneous, twice daily, from day 6 until termination of the study (day 16). Body weight of each animal was measured at days 1, 3 and 5 (pre-initiation of GL1001 or sulfasalazine treatment) and at days 7, 9, 11 and 13 (post-initiation of GL1001 or sulfasalazine treatment). On these same days, disease activity measurements were recorded, including: • (a) rectal prolapse (0=no prolapse, 1=partial prolapse, 2=moderate prolapse, 3=full prolapse); • (b) stool consistency (0=solid pellet, 1=semi-solid, 2=soft stool, 3=diarrhea); and • (c) fecal occult blood (0=no blood present, 1=occult blood, 2=gross blood). At termination of the study, colon length was determined and histological analysis was conducted as in Example 6.

[1] = tested on: activator protein-1 (AP-1); experiment: In vivo basal reporter luciferase expression in AP-1:Luc mice; details: data not shown
[2] = tested on: NF-κB dependent transcription in recombinant HeLa reporter cells; experiment: TNFα-induced activation of NF-κB dependent transcription, luciferase reporter in HeLa cells; format: cell-based; details: TNFα 20 ng/ml, 6 hours
From the text: To test the ACE2 inhibitor GL1001 for anti-inflammatory activity relevant to IBD, effects of the compound on activation of NF-κB dependent transcription by TNFα were examined in recombinant reporter cells containing a construct with a luciferase reporter gene under control of NF-κB dependent regulatory sequences, thereby allowing detection of NF-κB dependent transcription by measuring reporter enzyme using a conventional luciferase activity assay based on detection of generated light.
In particular, HeLa cells (American Type Culture Collection) were grown in Dulbecco's modified Eagles medium (DMEM) supplemented with 10% fetal calf serum and transiently transfected with an NF-κB-luc construct (Stratagene, Inc.), as follows (with all incubation steps at 37 C unless otherwise indicated). Cells were seeded and grown to about 70% confluency in a 10 cm cell culture dish. Plasmid DNA (10 μg) was added to 1 ml serum free DMEM media in a tube. Fugene 6 transfection reagent (30 μl) (Roche) was then pipetted slowly into the tube and the contents were gently mixed by inversion. The mixture was incubated at room temperature for 15 minutes and then added dropwise to cells in one 10 cm dish. […] Bioluminescence was then measured using a Veritas luminometer (Turner BioSystems). […]

[3] = tested on: basal NF-κB dependent transcription; experiment: In vivo basal NF-κB dependent transcription, abdominal imaging of NF-κB:Luc mice; details: 300 mg/kg subcutaneous, 4 hours; p<0.01
From the text: GL1001 was further tested for in vivo anti-inflammatory activity by examining its effects on basal levels of NF-κB dependent transcription in mice engineered in the germline with a construct containing an NF-κB enhancer linked to a luciferase gene (i.e., NF-κB:Luc mice), such that this NF-κB reporter construct is present in all cells of the mice.
More particularly, transgenic NF-κB:Luc mice were generated using three NF-κB response elements from the Igκ light chain promoter fused to a firefly luciferase gene as described by Carlsen et al. (2002) J. Immunol. 168:1441-1446. Pronuclear microinjection of purified construct DNA was used to generate transgenic founders in the C57BL/6 XCBA/J background. Founders were subsequently back crossed to the C57BL/6 albino background. […] Signal data were also quantitated and archived using the Living Image® software. Photons of light were quantitated using an oval region of interest (ROI) of varying sizes depending on the procedure, as described further below.
To test for in vivo effects of GL1001 on basal levels of NF-κB dependent transcription, male NF-κB:Luc mice were subjected to quantitative in vivo imaging of the abdominal area (using a fixed ROI of 2.76×3.7 cm) as described above, immediately before, and at 2, […]

[4] = tested on: LPS induced NF-κB dependent transcription; experiment: LPS induced NF-κB dependent transcription in extracted organs of NF-κB:Luc mice (luciferase lysate assay); format: in vivo; details: 0.5 mg/kg LPS and GL1001 at 30 mg/1 g vs LPS alone (FIG. 6)
From the text: For luciferase assays, organs were extracted and snap frozen in liquid nitrogen. All tissue samples were placed in lysis buffer with inhibitors (Passive Lysis Buffer (Promega) and Complete Mini Protease Inhibitor Cocktail (Roche, Indianapolis, Ind.)), and were homogenized using a tissue homogenizer (Handishear, Hand-held homogenizer, VirTis, Gardiner, N.Y.). Tissue homogenates were centrifuged and clarified lysates were used for luminometer assays and western blots. For the luminometer assays, Luciferase Assay Substrate (Luciferase Assay System, Promega) was prepared as indicated by the manufacturer and placed in disposable cuvettes. […] Background luminescence readings were obtained and the background readings were subtracted from the luminescent data. Protein concentrations were determined using the BCA Protein Assay Kit (Pierce, Rockford, Ill.) following the manufacturer's protocols and analyzed using a VERSAmax tunable microplate reader and associated Softmax Pro version 3.1.2 software (Molecular Devices, Sunnyvale Calif.). The luminescence for each of the protein lysates was calculated as arbitrary units of light per microgram of protein. […]
GL1001 was further tested for in vivo anti-inflammatory activity by examining its effects on bacterial LPS induced NF-κB dependent transcription, in NF-κB:Luc mice. […] Luciferase signal was quantitated from several regions of interest. […]

[5] = after a single dose, 5 mg/kg infusion

## Infliximab: anti-TNFα monoclonal antibody
NF-κB activity
  NF-κB activity: decrease
Ulcerative colitis
  response rates in UC: 50-70%
Crohn's disease; [5]
  induction of remission rate in CD: 50%
  response rate in CD: 80%
Crohn's disease; human, in vivo
  patients in whom the fistula responds (closes), fistulizing CD: 68%
  patients who develop an abscess, fistulizing CD: 12%

## O=C(O)c1cc(/N=N/c2ccc(S(=O)(=O)Nc3ccccn3)cc2)ccc1O [sulfasalazine]
DSS-induced colitis; sulfasalazine 150 mg/kg b.i.d. subcutaneous (FIG. 19)
  reduction in colon length: inhibits reduction
DSS-induced colitis; sulfasalazine 150 mg/kg b.i.d. subcutaneous (FIG. 20)
  distal colon inflammation score: reduces
DSS-induced colitis; sulfasalazine 150 mg/kg b.i.d. subcutaneous (FIG. 21)
  distal colon crypt score: reduces
DSS-induced colitis; sulfasalazine 150 mg/kg b.i.d. subcutaneous (FIG. 23)
  distal colon total histopathology score: reduces
DSS-induced colitis; sulfasalazine 150 mg/kg b.i.d. subcutaneous, day 7 (FIG. 17)
  stool consistency: No significant effect
DSS-induced colitis; sulfasalazine 150 mg/kg b.i.d. subcutaneous, day 7 (FIG. 18)
  fecal occult blood: reduces
DSS-induced colitis; sulfasalazine 150 mg/kg b.i.d. subcutaneous, day 9 (FIG. 15)
  percentage weight loss: No significant effect
DSS-induced colitis; sulfasalazine 150 mg/kg b.i.d. subcutaneous, day 9 (FIG. 16)
  rectal prolapse: reduces

## CC(C)C[C@H](N[C@@H](Cc1cncn1Cc1cc(Cl)cc(Cl)c1)C(=O)O)C(=O)O [GL1001, (S,S)-2-[1-carboxy-2-[3-(3,5-dichlorobenzyl)-3H-imidazol-4-yl]-ethylamino]-4-methylpentanoic acid]
[1]
  effect on basal in vivo levels of reporter luciferase expression in AP-1:Luc mice: no significant effect
[2]; 8 nM
  inhibition of TNFα induced activation of NF-κB dependent transcription: over 80%
[2]; 0.2 μM
  maximal inhibition of TNFα induced activation of NF-κB dependent transcription: over 95%
[3]
  inhibition of basal in vivo levels of NF-κB dependent transcription in abdominal ROI: over 40%
[4]
  reduction of LPS induced NF-κB-dependent transcription in stomach: about 37 fold
